The text below walks through data of ChEMBL document CHEMBL2311445, “Discovery of novel inhibitors of LEDGF/p75-IN protein-protein interactions” (Bioorg Med Chem, 2013).

The subject of one assay is HCT-116. In words: Cytotoxicity against human HCT116 p53 +/+ and -/- cells after 72 hrs by MTT assay. The assay is classed as cell-based. To be noted: HCT-116, 72 h. Background: Tetrazolium dyes change colour on reduction, which living cells bring about.
The nature of assay [1]: Inhibition of human Flag-tagged LEDGF interaction to His6-tagged HIV1 integrase expressed in Escherichia coli BL21 (DE3) preincubated for 20 mins measured after 1 hr by AlphaScreen proximity luminescent assay.
In assay [2] the test system is Human immunodeficiency virus 1. Nature of the assay: Antiviral activity against HIV1 3B infected in human MT4 cells assessed as inhibition of virus-induced cytopathic effect by MTT assay. The assay is classed as functional, organism-based. To be noted: Human immunodeficiency virus 1, 3B. For orientation: Protection from cytopathic effect is a common read-out in antiviral testing.

Assay [3] deals with T1, Human immunodeficiency virus type 1 integrase (Human immunodeficiency virus 1, UniProt Q7ZJM1). Nature of the assay: Inhibition of wild type HIV1 integrase strand transfer activity using 5'-end 32P-labeled linear oligonucleotide as substrate preincubated for 30 mins.
T1 sequence (Q7ZJM1 whole entry): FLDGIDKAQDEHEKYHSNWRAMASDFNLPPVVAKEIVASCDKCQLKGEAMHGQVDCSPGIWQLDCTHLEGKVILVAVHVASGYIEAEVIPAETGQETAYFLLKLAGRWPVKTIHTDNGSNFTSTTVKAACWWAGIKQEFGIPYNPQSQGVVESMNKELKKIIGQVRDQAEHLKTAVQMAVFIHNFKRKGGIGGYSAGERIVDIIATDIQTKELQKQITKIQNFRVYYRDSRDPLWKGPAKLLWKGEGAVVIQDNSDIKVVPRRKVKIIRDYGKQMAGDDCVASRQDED
Assay [4] concerns the target T1, Human immunodeficiency virus type 1 integrase. In words: Inhibition of wild type HIV1 integrase 3'-processing activity using 5'-end 32P-labeled linear oligonucleotide as substrate preincubated for 30 mins.

Regarding `Cc1[nH]n(-c2ccccc2)c(=O)c1/C=N/Nc1ccc([N+](=O)[O-])cc1`, the half-maximal effective concentration (EC50) (as a rule, the concentration that produces a half-maximal response) with HCT-116 was more than 10 µM. Moreover, in assay [1], the IC50 (usually the concentration that inhibits the measured activity by half) worked out at 6 µM.
The compound `CCOc1cccc(/C=N/NC(=O)c2n[nH]c3c2CCC3)c1O` displayed an EC50 in the assay on HCT-116 of 6 µM. Also, the IC50 is more than 4 µM in assay [2], more than 100 µM in assay [3], more than 100 µM in assay [4] and 2 µM in assay [1].
Turning to `CC(=O)c1ccc(/N=N/c2ccc(C[P+](c3ccccc3)(c3ccccc3)c3ccccc3)cc2)cc1`, the EC50 in the assay with HCT-116 worked out at 0.5 µM. The figures for the IC50 in assay [3], in assay [4] and in assay [1] were more than 100 µM, more than 100 µM and 12 µM, respectively.
As to `O=C(N/N=C/c1cc(Br)ccc1O)C1=NNC2CCCCC12` (stereo not given), it took 5 µM to reach a half-maximal effect in the assay with HCT-116 (EC50). The IC50 in assay [3] is 15 µM; in assay [4] it was 29 µM; in assay [1] it was 4 µM.
In assay [1], `CCNc1nc(NCC)nc(C(=O)Nc2ccccc2)n1` returned an IC50 of 21 µM.
For `Cc1occc1C(=O)NN/C=C1/C(=O)N(c2ccccc2Cl)C(=O)c2ccccc21`, in the assay on HCT-116, a half-maximal response (EC50) required 6.5 µM. The IC50 was 75 µM in assay [3], 90 µM in assay [4] and 8 µM in assay [1].
In the assay on HCT-116, `COc1ccc(CN2CCCN(c3ccc(S(=O)(=O)Nc4ccccc4)cc3[N+](=O)[O-])CC2)cc1` showed an EC50 of more than 10 µM. The IC50 stood at 24 µM in assay [2] and 34 µM in assay [1].
As for `CCN(CC)c1ccc(/C=C2\CCC(/C=N/N3CCN(c4ccc(C)cc4)CC3)=C2N2CCOCC2)cc1`, the response in the assay with HCT-116 was half-maximal at 3.3 µM (EC50). The same compound gave an IC50 in assay [1] of 46 µM.
As to `c1ccc(/N=N/C(=N/Nc2ccccc2)c2ccccc2)cc1`, the EC50 in the assay on HCT-116 is more than 10 µM. The IC50 in assay [2] is more than 5 µM; in assay [3], more than 100 µM; in assay [4], more than 100 µM; in assay [1] it was 20 µM.
`Cn1cccc1/C=N/N1CCN(Cc2ccccc2)CC1` returned an EC50 in the assay with HCT-116 of more than 10 µM. Moreover, the values for the IC50 in assay [3], in assay [4] and in assay [1] were more than 100 µM, more than 100 µM and 32 µM, respectively.
For the compound `O=C(CP(=O)(c1ccccc1)c1ccccc1)N/N=C/c1cc(Br)cc(Br)c1O`, the EC50 in the assay on HCT-116 was 3.3 µM. Besides, the IC50 was 100 µM in assay [3], 100 µM in assay [4] and 50 µM in assay [1].
Consider `Cc1ccc(N/N=C2\Sc3ccccc3C2=O)cc1`, for which the EC50 with HCT-116 amounted to 10 µM. Besides, the IC50 is more than 100 µM in assay [2], more than 100 µM in assay [3], more than 100 µM in assay [4] and 6 µM in assay [1].
In the assay on HCT-116, `CCN(CC)c1ccc(/C=C2\CCC(/C=N/N=C/c3cccnc3)=C2N2CCOCC2)cc1` displayed an EC50 of more than 10 µM. For the same compound, the IC50 in assay [2] was more than 20 µM; in assay [3], more than 100 µM; in assay [4] it was more than 100 µM; in assay [1], 3 µM.
On to `C/C(=N\Nc1ccc(S(=O)(=O)Nc2ccccc2)cc1[N+](=O)[O-])c1cc(O)ccc1O`, for which the IC50 in assay [2] is more than 28 µM; in assay [3] it was more than 100 µM; in assay [4], more than 100 µM; in assay [1] it was 13 µM.
Regarding `NNC(=O)Cn1cnc(-c2ccc(F)cc2)c1`, the IC50 in assay [1] is more than 50 µM.
In the assay on HCT-116, `COc1ccccc1NS(=O)(=O)c1ccc(N/N=C(\C)c2ccccc2Br)c([N+](=O)[O-])c1` showed an EC50 of more than 10 µM. The IC50 is 12 µM in assay [2], more than 100 µM in assay [3], more than 100 µM in assay [4] and 6 µM in assay [1].
In turn, `O=C(COc1ccc(Cl)cc1Cl)N/N=C/c1cc(Br)ccc1O` had an EC50 with HCT-116 of more than 10 µM. Also, the IC50 in assay [3] was more than 100 µM; in assay [4], more than 100 µM; in assay [1], 50 µM.
On to `COc1cc(/C=N/Nc2ccc(S(=O)(=O)Nc3ccccc3C(=O)O)cc2[N+](=O)[O-])ccc1O`, for which the IC50 in assay [2] is more than 10 µM; in assay [3] it was more than 100 µM; in assay [4], more than 100 µM; in assay [1], 25 µM.
In the assay with HCT-116, `O=C(N/N=C/c1ccc(Cl)cc1Cl)c1cnccn1` returned an EC50 of more than 10 µM. Also, the IC50 is more than 100 µM in assay [3], more than 100 µM in assay [4] and more than 50 µM in assay [1].
Compound `O=C(N/N=C/c1ccc(Cl)cc1Cl)c1n[nH]c2c1CCC2` yielded an EC50 in the assay with HCT-116 of less than 1 µM. For the same compound, the IC50 in assay [1] is more than 50 µM.
For `COc1ccccc1N1CCN(/N=C/c2ccc(Cl)c([N+](=O)[O-])c2)CC1`, the EC50 in the assay with HCT-116 was more than 10 µM. The IC50 was more than 100 µM in assay [2], more than 100 µM in assay [3], more than 100 µM in assay [4] and 21 µM in assay [1].
`CC(C)c1ccc(/C=N/N2CCN(Cc3ccccc3)CC2)cc1` yielded an EC50 in the assay on HCT-116 of more than 10 µM. Besides, half-maximal inhibition in assay [1] (IC50) required 50 µM.
The corresponding values for `Cc1nc2ccccc2c(=O)n1/N=C/c1ccccc1O` are 10 µM and more than 50 µM.
With `O=C(N/N=C/c1c(O)ccc2ccccc12)c1cc[nH]n1`, the midpoint of the response with HCT-116, the EC50, lay at 1.5 µM. Also, the IC50 in assay [2] was more than 14 µM; in assay [3] it was more than 100 µM; in assay [4] it was more than 100 µM; in assay [1], 7 µM.
For the compound `COc1ccc(O)c(/C=N/NC(=O)c2sc3ccccc3c2O)c1`, in the assay with HCT-116, the EC50 stood at 8 µM. In addition, the results for the IC50 in assay [3], in assay [4] and in assay [1] were more than 100 µM, more than 100 µM and 38 µM, respectively.
Compound `Oc1ccc(/C=N/N2CCN(c3ccccc3)CC2)cc1O` came in with an EC50 in the assay with HCT-116 of more than 10 µM. Moreover, the IC50 was 31 µM in assay [3], 69 µM in assay [4] and 16 µM in assay [1].
`C/C(=N\NC(=O)C1CCCCC1)c1ccccc1O` had an EC50 in the assay on HCT-116 of more than 10 µM. In addition, the IC50 is more than 20 µM in assay [2] and 93 µM in assay [1].
`CC(Oc1ccccc1)C(=O)N/N=C/c1ccccc1O` (stereo not given) came in with an EC50 with HCT-116 of 6.5 µM. The same compound yielded an IC50 in assay [1] of 50 µM.
With `COCCN1C(=O)/C(=C\NNC(=O)c2cc(Cl)ccc2O)C(=O)NC1=S`, in the assay on HCT-116, the concentration giving a half-maximal response (EC50) turned out to be 10 µM. Moreover, the IC50 in assay [2] was more than 40 µM; in assay [3], 80 µM; in assay [4] it was 90 µM; in assay [1], 13 µM.
Turning to `CCN(CC)c1ccc(/C=C2\CCC(/C=N/N=C/c3c(C)[nH]c4ccccc34)=C2N2CCOCC2)cc1`, the EC50 with HCT-116 was more than 10 µM. Further, the IC50 in assay [1] was determined as 40 µM.
On to `CC/N=c1/scc(-c2ccc(Br)cc2)n1/N=C/c1ccc(O)c(O)c1O`, for which the EC50 with HCT-116 was more than 10 µM. Besides, the IC50 in assay [2] was more than 35 µM; in assay [1], less than 25 µM.
Take `Cc1nnc(NNC(=O)c2ccccc2)c2c1[nH]c1ccccc12`: in assay [1], the IC50 was more than 50 µM.
Consider `Cc1cc(C)nc(N/N=C/c2cccc(O)c2)n1`, for which, in the assay with HCT-116, the EC50 is 4 µM. The compound also returned an IC50 in assay [1] of more than 50 µM.
`FC(F)(F)c1ccccc1/C=N/N1CCN(Cc2ccccc2)CC1` displayed an EC50 in the assay with HCT-116 of more than 10 µM. The IC50 in assay [3] is more than 100 µM; in assay [4] it was more than 100 µM; in assay [1] it was 35 µM.
`O=C(N/N=C/c1cccnc1)C1=NNC2CCCCC12` (stereo not given): in the assay with HCT-116, the EC50 amounted to 5 µM. Also, the IC50 was more than 20 µM in assay [2] and more than 50 µM in assay [1].
As to `C=CC/N=c1/scc(-c2ccccc2Br)n1/N=C/c1ccccn1`, the IC50 was more than 1 µM in assay [2], more than 100 µM in assay [3], more than 100 µM in assay [4] and 23 µM in assay [1].
In the case of `O=C(Nn1cnc2ccccc2c1=O)c1cnccn1`, the IC50 in assay [1] is 39 µM.
With `Cc1sc2ncnc(N/N=C/c3c(O)ccc4ccccc34)c2c1C`, in the assay with HCT-116, the EC50 was less than 1 µM. Moreover, the figures for the IC50 in assay [3], in assay [4] and in assay [1] were 52 µM, 77 µM and 6 µM, respectively.
Consider `Oc1ccc(Br)cc1/C=N/Nc1cccc2cccnc12`, for which the IC50 in assay [3] is more than 100 µM; in assay [4], more than 100 µM; in assay [1], more than 50 µM.
Regarding `CC/C(=N\NC(=O)c1ccc(F)cc1)c1cc(Cl)cc(Cl)c1O`, the response in the assay on HCT-116 was half-maximal at 2.5 µM (EC50). The compound also displayed an IC50 in assay [1] of more than 50 µM.
The corresponding values for `COC(=O)c1ccc(/N=N/c2ccc([P+](c3ccccc3)(c3ccccc3)c3ccccc3)cc2)cc1` are 0.4 µM and 36 µM.
In the assay with HCT-116, `O=C(N/N=C/c1ccc(O)cc1O)c1ccncc1` registered a concentration for a half-maximal effect (EC50) of 4 µM. For the same compound, the IC50 was more than 100 µM in assay [3], more than 100 µM in assay [4] and 4 µM in assay [1].
For `CCNc1nc(NCC)nc(C(=O)NN)n1`, the IC50 is more than 20 µM in assay [2], less than 100 µM in assay [3], less than 100 µM in assay [4] and 6 µM in assay [1].
In the case of `O=C1C(O)=Cc2ccccc2/C1=N\Nc1ccc(Cl)cc1`, the IC50 in assay [2] is more than 40 µM; in assay [3], 100 µM; in assay [4], more than 100 µM; in assay [1], 3 µM.
Regarding `Cc1nnc(NN)c2c1[nH]c1ccccc12`, the IC50 was more than 50 µM in assay [2], more than 100 µM in assay [3], more than 100 µM in assay [4] and 5 µM in assay [1].
Consider `O=C(N/N=C/c1cc(Br)ccc1O)c1cccnc1`, for which the IC50 in assay [2] is more than 3 µM; in assay [3], more than 100 µM; in assay [4], more than 100 µM; in assay [1], 4 µM.
In the case of `O=C(N/N=C/c1c(O)ccc2ccccc12)c1ccncc1`, the IC50 in assay [3] was more than 100 µM; in assay [4] it was more than 100 µM; in assay [1], 6 µM.
As to `COc1cc(Br)cc(/C=N/NC(=O)c2ccccn2)c1O`, the IC50 is more than 22 µM in assay [2], 13 µM in assay [3], 17 µM in assay [4] and 1.3 µM in assay [1].
In the case of `NNC(=O)c1cc(-c2ccc(Cl)cc2)n[nH]1`, the EC50 in the assay on HCT-116 is 10 µM. This compound showed an IC50 in assay [1] of more than 50 µM.
Regarding `Cc1nnc(Cl)c2c1[nH]c1ccccc12`, the IC50 in assay [1] was more than 50 µM.
In the assay on HCT-116, `O=[N+]([O-])c1ccccc1/C=N/N1CCN(Cc2ccccc2)CC1` yielded an EC50 of less than 10 µM. Further, 24 µM corresponded to half-maximal inhibition in assay [1] (IC50).
Turning to `COc1c(Cl)cc(Cl)cc1/C=N/NC(=O)c1ccncc1`, the results for the IC50 in assay [3], in assay [4] and in assay [1] were more than 100 µM, more than 100 µM and more than 50 µM, respectively.
